Values after ≈ are worked out from the molar mass of the structure shown. Read-outs that look alike come from different tables or passages of the source. *1 amine or outer side, *2 acyl side, *3 side chain or, on linkers, in order; H or OH if unused. Where a SMILES comes first, the peptide text is derived from it. Bridges are numbered along the chain shown (N, C = ends). Roman numbers before positions name the chains, in order. [ ]: non-standard residue; d: D form. The star is where a group is joined. X5 = C#CCOCCOCCOCCOCCN1C[C@@H](C(=O)[*:1])[C@H](C(=O)[*:2])C1; X2 = O=C([C@@H](N[*:1])[C@H](O)CCC(F)(F)F)[*:2]; Propargyl(OCH2CH2)4CO = C#CCOCCOCCOCCOCCC(=O)*; X3 = CCCCC[C@@H](O)[C@H](N[*:1])C(=O)[*:2]; azaDab = NCCN(N[*:1])C(=O)[*:2]; Aoc(2) = CCCCCC[C@H](N)C(=O)O; hLeu = CC(C)CC[C@H](N)C(=O)O; Nle = CCCC[C@H](N)C(=O)O; Dab = NCC[C@H](N)C(=O)O; azaGly = NNC(=O)O
Legend:
[1] = system: Ec AR0349 (mcr-1, COL^R); type: cell-based, Escherichia coli; details: media CA-MHB
[2] = system: Ec 25922 64X-1 (COL^R); type: cell-based, Escherichia coli; details: media CA-MHB
[3] = system: Ec 2469; type: cell-based, Escherichia coli
Outline: (§1)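 Twofold dilution series of each agent received bacterial cells from MHA plates (saline, ~0.1 OD600 nm), with RPMI B medium used for drug conjugates. Plates were shaken and held at 35° C overnight (16-20 h). LES431 was tested in presence and absence of 50% heat-inactivated fetal bovine serum.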

[4] = system: Ec 25922; type: cell-based, Escherichia coli; details: for MIC in RPMI EC 25922: pH 7.4
Outline: as §1

[5] = system: Pa LES431; type: cell-based, Pseudomonas aeruginosa
Outline: as §1

[6] = system: Pa 27853; type: cell-based, Pseudomonas aeruginosa
Outline: as §1

[7] = system: Pa PAO1; type: cell-based, Pseudomonas aeruginosa; details: for MIC in RPMI PA 01: PAO1, pH 7.4
Outline: as §1

[8] = system: Ec COL^R LPS: colistin-resistant (MCR-1) strain (AR0349); experiment: Lethal mouse endotoxemia model (LD95 purified LPS IP); type: in vivo, C57BL/6J mice; details: (D) Endotoxemia (Ec COL^R LPS); 5 mg/kg IV, single, -1 hr; survival after three days
Experimental: (§2) Studies (B)-(D) shown in Table 22 summarizes the efficacy of compounds in lethal models of endotoxemia. In these models 6 week old C57I/6J immune competent mice (Jackson Laboratory) were challenged IP with purified lipopolysaccharide (LPS) in PBS at an LD95. For all studies, LPS was obtained from Sigma (catalog numbers in the table footnote) or were purified using a kit obtained from iNtRON Biotechnology Inc. (cat #17141). One hour prior to LPS challenge mice were dosed with test articles as indicated (Table 22). The results of these studies indicate that compounds are able to neutralize the lethal effects of LPS in a severe endotoxemia/sepsis model.
End point was survival after 3 days. Ec: E. coli 0111:B34, Sigma cat #L4130; Ab: Acinetobacter baumannii 5075; Kp: Klebsiella pneumonia 10, Sigma cat #L4268; Ng: Neisseria gonorrhoeae 19424; Ec 026:B86, Sigma cat #L2762; Pm: Proteus mirabilis, Sigma cat #SMB00704; Sm: Serratia marcescens, Sigma cat #L6016; Pa: Pseudomonas aeruginosa 10. […] Purified LPS used for all endotoxemia studies and if not denoted by a Sigma catalog number the LPS was purified in-house using an iNtRON #17141 purification kit. *Delayed death, at the time Fc only animals reached 100% mortality all Conjugate 41 mice were still alive.

[9] = system: Ec LPS: E. coli 0111:B4; experiment: as above; type: in vivo, C57BL/6J mice; details: (B) Endotoxemia (Ec LPS); 1 mg/kg IV, single, -1 hr; survival after three days
Experimental: as §2
End point was survival after 3 days. Ec: E. coli 0111:[…] (Sigma cat #L4130); Ab: Acinetobacter baumannii 5075 (iNtRON cat #17141); Ng: Neisseria gonorrhoeae 19424 (iNtRON cat #17141); COL: colistin.
End point was survival after 3 days. Ec: E. coli 0111:B34, Sigma cat #L4130; Ab: Acinetobacter baumannii 5075; Kp: Klebsiella pneumonia 10, Sigma cat #L4268; Ng: Neisseria gonorrhoeae 19424; Ec 026:B86, Sigma cat #L2762; Pm: Proteus mirabilis, Sigma cat #SMB00704; Sm: Serratia marcescens, Sigma cat #L6016; Pa: Pseudomonas aeruginosa 10. […]

SMILES | MIC [1] [µg/mL] | MIC [2] [µg/mL] | MIC [3] [µg/mL] | MIC [4] [µg/mL] | MIC in RPMI EC 25922 [4] [µg/mL] | MIC [5] [µg/mL] | MIC [6] [µg/mL] | MIC ([7]; PAO1) [µg/mL] | MIC in RPMI PA 01 [7] [µg/mL] | % survival [8] [%] | MIC ([3]; Ec 2469, media CA-MHB) [µg/mL] | MIC ([4]; Ec 25922 + FBS (50%, heat-inactivated), media CA-MHB) [µg/mL] | MIC ([4]; Ec 25922, media CA-MHB) [µg/mL] | MIC ([5]; Pa LES431 + FBS (50%, heat-inactivated), media CA-MHB) [µg/mL] | MIC ([5]; Pa LES431, media CA-MHB) [µg/mL] | MIC ([6]; Pa 27853, media CA-MHB) [µg/mL] | MIC ([7]; Pa PAO1, media CA-MHB) [µg/mL] | % survival [9] [%]
C#CCOCCOCCOCCOCCC(=O)N[C@@H](CCC(C)C)C(=O)N[C@@H](CCN)C(=O)N[C@H](C(=O)NNC(=O)N[C@H]1CCNC(=O)[C@H]([C@@H](C)O)NC(=O)[C@H](CCN)NC(=O)[C@H](CCN)NC(=O)[C@H](CC(C)C)NC(=O)[C@@H](Cc2ccccc2)NC(=O)[C@H](CCN)NC1=O)[C@H](O)CCCCC [Int-116] ({Propargyl(OCH2CH2)4CO}-[hLeu][Dab][X3][azaGly][Dab][Dab][dF]L[Dab][Dab]T; lactam 5-C) | 8 (≈ 5.53 µM) | 64 (≈ 44.2 µM) | 2 (≈ 1.38 µM) | 2 (≈ 1.38 µM) | 1.05 (≈ 0.726 µM) | 4 (≈ 2.76 µM) | 4 (≈ 2.76 µM) | 4 (≈ 2.76 µM) | 8.41 (≈ 5.81 µM) | – | – | – | – | – | – | – | – | –
C#CCOCCOCCOCCOCCC(=O)N[C@@H](CCCCCC)C(=O)N[C@@H](CCN)C(=O)N[C@H](C(=O)N[C@@H](CCN)C(=O)N[C@H]1CCNC(=O)[C@H]([C@@H](C)O)NC(=O)[C@H](CCN)NC(=O)[C@H](CCN)NC(=O)[C@H](CC(C)C)NC(=O)[C@@H](Cc2ccccc2)NC(=O)[C@H](CCN)NC1=O)[C@H](O)CCC(F)(F)F [Int-118] ({Propargyl(OCH2CH2)4CO}-[Aoc(2)][Dab][X2][Dab][Dab][Dab][dF]L[Dab][Dab]T; lactam 5-C) | – | – | 1 (≈ 0.654 µM) | 1 (≈ 0.654 µM) | 0.95 (≈ 0.621 µM) | 1 (≈ 0.654 µM) | 2 (≈ 1.31 µM) | 2 (≈ 1.31 µM) | 3.81 (≈ 2.49 µM) | – | – | – | – | – | – | – | – | –
C#CCOCCOCCOCCOCCN1C[C@@H](C(=O)N[C@@H](CCCC)C(=O)N[C@@H](CCN)C(=O)N[C@H](C(=O)NNC(=O)N[C@H]2CCNC(=O)[C@H]([C@@H](C)O)NC(=O)[C@H](CCN)NC(=O)[C@H](CCN)NC(=O)[C@H](CC(C)C)NC(=O)[C@@H](Cc3ccccc3)NC(=O)[C@H](CCN)NC2=O)[C@@H](C)O)[C@H](C(=O)N[C@@H](CCCC)C(=O)N[C@@H](CCN)C(=O)N[C@H](C(=O)NNC(=O)N[C@H]2CCNC(=O)[C@H]([C@@H](C)O)NC(=O)[C@H](CCN)NC(=O)[C@H](CCN)NC(=O)[C@H](CC(C)C)NC(=O)[C@@H](Cc3ccccc3)NC(=O)[C@H](CCN)NC2=O)[C@@H](C)O)C1 [Int-120] (I: [Nle][Dab]T[azaGly][Dab][Dab][dF]L[Dab][Dab]T / II: [Nle][Dab]T[azaGly][Dab][Dab][dF]L[Dab][Dab]T; lactam I:5-I:C, II:5-II:C; linker I:N-II:N via X5) | 2 (≈ 0.767 µM) | 2 (≈ 0.767 µM) | – | – | – | – | – | – | – | 100 | 2 (≈ 0.767 µM) | 0.25 | 2 (≈ 0.767 µM) | 8 | 2 (≈ 0.767 µM) | 4 (≈ 1.53 µM) | 4 (≈ 1.53 µM) | –
C#CCOCCOCCOCCOCCC(=O)N[C@@H](CCC(C)C)C(=O)N[C@@H](CCN)C(=O)N[C@H](C(=O)NN(CCN)C(=O)N[C@H]1CCNC(=O)[C@H]([C@@H](C)O)NC(=O)[C@H](CCN)NC(=O)[C@H](CCN)NC(=O)[C@H](CC(C)C)NC(=O)[C@@H](Cc2ccccc2)NC(=O)[C@H](CCN)NC1=O)[C@@H](C)O [Int-127] ({Propargyl(OCH2CH2)4CO}-[hLeu][Dab]T[azaDab][Dab][Dab][dF]L[Dab][Dab]T; lactam 5-C) | 8 (≈ 5.58 µM) | 64 (≈ 44.6 µM) | 1 (≈ 0.697 µM) | 1 (≈ 0.697 µM) | 1.00 (≈ 0.697 µM) | 1 (≈ 0.697 µM) | 2 (≈ 1.39 µM) | 2 (≈ 1.39 µM) | 3.99 (≈ 2.78 µM) | – | – | – | – | – | – | – | – | –
C#CCOCCOCCOCCOCCC(=O)N[C@@H](CCCCCC)C(=O)N[C@@H](CCN)C(=O)N[C@H](C(=O)NN(CCN)C(=O)N[C@H]1CCNC(=O)[C@H]([C@@H](C)O)NC(=O)[C@H](CCN)NC(=O)[C@H](CCN)NC(=O)[C@H](CC(C)C)NC(=O)[C@@H](Cc2ccccc2)NC(=O)[C@H](CCN)NC1=O)[C@@H](C)O [Int-129] ({Propargyl(OCH2CH2)4CO}-[Aoc(2)][Dab]T[azaDab][Dab][Dab][dF]L[Dab][Dab]T; lactam 5-C) | – | – | 2 (≈ 1.38 µM) | 1 (≈ 0.691 µM) | – | 2 (≈ 1.38 µM) | 4 (≈ 2.76 µM) | 8 (≈ 5.53 µM) | – | – | – | – | – | – | – | – | – | 100

Source: patent publication US20230165970A1, “COMPOSITIONS AND METHODS FOR THE TREATMENT OF BACTERIAL INFECTIONS” (priority 2017, published 2023)
